Laboratory results from patent US9416128B2, “Fused heterocyclic compounds as ion channel modulators” (Gilead Sciences, Inc., priority 2013, dated 2016).

Assays:
[1] = biological target: wild-type human cardiac sodium channel, hNaV 1.5 (Late INa) (Homo sapiens, UniProt Q14524); assay: Late INa screening assay (whole cell patch clamp, QPatch, Tefluthrin-induced late current); format: cell-based; conditions: HEK293, % inhibition (percent block of late INa) at 1 uM; HEK293 hNaV1.5; 10 μM Tefluthrin; read-out: Nav1.5 Late INa 1 uM
Sequence of wild-type human cardiac sodium channel, hNaV 1.5 (Late INa) (Q14524 whole entry): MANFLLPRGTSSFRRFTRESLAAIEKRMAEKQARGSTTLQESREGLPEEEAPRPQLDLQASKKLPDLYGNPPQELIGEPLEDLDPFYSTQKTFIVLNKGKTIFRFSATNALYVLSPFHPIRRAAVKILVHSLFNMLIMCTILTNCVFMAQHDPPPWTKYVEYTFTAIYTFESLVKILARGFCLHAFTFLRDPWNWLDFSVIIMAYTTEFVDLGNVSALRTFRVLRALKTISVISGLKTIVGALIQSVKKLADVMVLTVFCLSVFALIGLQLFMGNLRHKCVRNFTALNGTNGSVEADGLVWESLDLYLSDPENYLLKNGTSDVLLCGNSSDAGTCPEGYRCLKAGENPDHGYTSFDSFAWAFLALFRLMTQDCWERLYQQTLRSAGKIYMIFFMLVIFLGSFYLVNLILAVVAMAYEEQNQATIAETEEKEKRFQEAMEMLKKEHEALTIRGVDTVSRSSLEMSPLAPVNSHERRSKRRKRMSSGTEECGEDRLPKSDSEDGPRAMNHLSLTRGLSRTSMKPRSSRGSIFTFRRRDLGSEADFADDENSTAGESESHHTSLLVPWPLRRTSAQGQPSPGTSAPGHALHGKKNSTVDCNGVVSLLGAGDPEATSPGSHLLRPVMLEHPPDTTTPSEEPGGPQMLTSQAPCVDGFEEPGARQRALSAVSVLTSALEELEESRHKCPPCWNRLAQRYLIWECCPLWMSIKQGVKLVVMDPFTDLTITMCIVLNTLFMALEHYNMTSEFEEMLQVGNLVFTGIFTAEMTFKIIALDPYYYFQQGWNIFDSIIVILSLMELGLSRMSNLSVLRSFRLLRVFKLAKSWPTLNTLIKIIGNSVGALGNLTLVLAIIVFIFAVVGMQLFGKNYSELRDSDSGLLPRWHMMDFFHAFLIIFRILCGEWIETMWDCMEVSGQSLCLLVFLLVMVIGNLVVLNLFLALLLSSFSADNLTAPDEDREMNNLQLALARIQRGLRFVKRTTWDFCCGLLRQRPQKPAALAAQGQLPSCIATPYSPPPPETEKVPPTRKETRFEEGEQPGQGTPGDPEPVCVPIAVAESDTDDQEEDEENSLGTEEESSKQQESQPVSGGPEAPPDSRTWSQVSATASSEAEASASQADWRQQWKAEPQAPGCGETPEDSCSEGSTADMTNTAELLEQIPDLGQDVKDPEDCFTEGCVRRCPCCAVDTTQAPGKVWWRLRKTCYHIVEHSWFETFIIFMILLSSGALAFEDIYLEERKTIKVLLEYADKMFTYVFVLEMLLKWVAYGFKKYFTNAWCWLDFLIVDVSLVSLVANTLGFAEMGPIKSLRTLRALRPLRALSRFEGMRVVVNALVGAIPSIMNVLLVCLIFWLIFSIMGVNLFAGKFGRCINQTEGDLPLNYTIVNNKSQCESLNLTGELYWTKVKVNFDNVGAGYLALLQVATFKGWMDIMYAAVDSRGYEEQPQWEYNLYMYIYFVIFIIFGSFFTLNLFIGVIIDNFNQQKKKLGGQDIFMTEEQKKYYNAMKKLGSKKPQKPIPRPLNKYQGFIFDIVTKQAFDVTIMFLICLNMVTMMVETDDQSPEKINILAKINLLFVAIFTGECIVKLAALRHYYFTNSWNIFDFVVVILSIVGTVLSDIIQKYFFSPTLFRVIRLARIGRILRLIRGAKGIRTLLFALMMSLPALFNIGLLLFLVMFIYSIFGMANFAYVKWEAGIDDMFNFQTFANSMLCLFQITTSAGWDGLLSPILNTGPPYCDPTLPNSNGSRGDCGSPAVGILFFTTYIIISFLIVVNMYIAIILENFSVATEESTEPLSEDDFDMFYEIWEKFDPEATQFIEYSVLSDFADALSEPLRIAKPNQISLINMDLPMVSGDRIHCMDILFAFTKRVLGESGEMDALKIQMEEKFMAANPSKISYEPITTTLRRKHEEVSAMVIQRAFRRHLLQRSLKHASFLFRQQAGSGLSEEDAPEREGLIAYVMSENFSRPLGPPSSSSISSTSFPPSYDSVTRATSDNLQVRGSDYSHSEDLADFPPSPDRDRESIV
Procedure: The cardiac late sodium current (Late INa) and peak sodium current (Peak INa) assays are performed on an automated electrophysiology platform, QPatch 16X or QPatch HT (Sophion Bioscience, Copenhagen, Denmark) using the whole cell patch clamp technique to measure currents through the cell membrane. The assay uses an HEK293 (human embryonic kidney) cell line heterologously expressing the wild-type human cardiac sodium channel, hNaV 1.5, purchased from Millipore (Billerica, Mass.). No beta subunits were coexpressed with the Na channel alpha subunit. Cells are maintained with standard tissue culture procedures and stable channel expression is maintained with 400 μg/mL Geneticin in the culture medium. Experiments are carried out at 23-25° C.
For both the Late INa and Peak INa assays, series resistance compensation is set to 100% and series resistance and whole-cell compensation are performed automatically. Currents are digitized at 25 kHz and low-pass filtered at 5 kHz and stored in the Sophion Bioscience Oracle database (Sophion Bioscience, Copenhagen, Denmark). Analysis is performed using QPatch Assay software and data are compiled in Excel 2010 (Microsoft, Seattle, Wash., U.S.A.).
Compound stocks are routinely made by the Gilead Sample Bank in vials to 10 mM in dimethyl sulfoxide (DMSO). In some cases, when compounds are not soluble in DMSO, they are made in 100% ethanol. Stocks are sonicated as necessary. The extracellular solution for screening Late INa is composed of: 140 mM NaCl, 4 mM KCl, 1.8 mM CaCl2, 1 mM MgCl2, 10 mM HEPES and 10 mM Dextrose with pH adjusted to 7.35 using NaOH. The intracellular solution contains: 105 mM CsF, 20 mM CsCl, 10 NaF, 2 mM EGTA, 10 mM HEPES and 10 mM Dextrose with pH adjusted to 7.35 with CsOH. Compounds are diluted in extracellular solution using a MicroLab Nimbus (Hamilton Robotics, Reno, Nev.) to between 0.3 and 3 μM in glass vials and transferred to glass well plates before robotic addition to the cells. The 0 mM Na extracellular solution (0Na-ECF) used at the end of each experiment for the Late INa and Peak INa assays to measure baseline current contains: 140 Choline-Cl; 4 mM KCl, 1.8 mM CaCl2; 1 mM MgCl2; 10 mM HEPES and 10 mM Dextrose with pH was adjusted to 7.35 with CsOH.
For the Late INa assay, sodium channels are activated every 10 seconds (0.1 Hz) by depolarizing the cell membrane to −20 mV for 250 milliseconds (ms) from a holding potential of −120 mV.
Compounds were tested to determine their activity in blocking the late sodium current. Late INa was generated by adding 10 μM Tefluthrin (pyrethroid) to the extracellular solution. For the purposes of the screening, Late INa is defined as the mean current between 240 ms and 265 ms during the voltage step to −20 mV. After establishing the whole cell recording configuration, Late INa activator is added to each well 4 times over a 15 minute period so that the late component of the Na current reaches a stable value. Compounds were then added (typically at 0.3 or 1 μM), in the presence of the Late INa activator, with 3 additions over the course of 5 minutes. Measurements were made at the end of exposure to the third compound addition and values were normalized to the current level when all Na^+ was removed from the extracellular solution after two additions of 0Na-ECF.
Results are reported as percent block of late INa and results were analyzed by incorporating rundown correction for the Late INa.

hNaV1.1 (SCN1A) = hNaV1.1 (SCN1A) (Homo sapiens, UniProt P35498); assay: Use-dependent inhibition of the CNS NaV1.1 sodium channel; format: cell-based; conditions: % inhibition, 25 Hz; for inhibition at 1 µM: use-dependent block at 1 uM, read-out: Nav1.1 UDB 25 Hz 1 uM; for inhibition at 10 µM: use-dependent block at 10 uM, read-out: Nav1.1 UDB 25 Hz 10 uM
Procedure: HEK-293 cells stably expressing wild-type (WT) hNaV1.1 (SCN1A, NCBI# AB09354) were obtained from Millipore (Cat. # CYL3009) were used to record INa. Cells are maintained with standard tissue culture procedures and stable channel expression is maintained with 400 ug/mL G418 in the culture medium. Unless otherwise noted, all reagents are purchased from Sigma-Aldrich (St Louis, Mo., U.S.A.).
Assays measuring Use-Dependent Block (UDB) of NaV1.2 are performed on an automated electrophysiology platform, QPatch 16X or QPatch HT (Sophion Bioscience, Copenhagen, Denmark), using the whole cell patch clamp technique to measure currents through the cell membrane. Series resistance compensation is set to 100% and series resistance and whole-cell compensation are performed automatically. Currents stored in the Sophion Bioscience Oracle database (Sophion Bioscience, Copenhagen, Denmark). Analysis is performed using QPatch Assay software and data are compiled in Excel 2010 (Microsoft, Seattle, Wash., U.S.A.).
The internal (pipette) solution consists of (in mM) 105 CsF, 10 NaF, 20 CsCl, 2 EGTA, 10 HEPES, 10 Dextrose with a pH of 7.35 and osmolarity of 300 mOsmol/kg. The external (bath) solution contains in (mM): 145 NaCl, 4 KCl, 1.8 CaCl2, 1 MgCl2, 10 dextrose, 10 HEPES, with a pH of 7.35 and osmolarity of 310 mOsmol/kg. Experiments are carried out at 23-25° C.
Compound stocks are routinely made by the Gilead Sample Bank in vials to 10 mM in dimethyl sulfoxide (DMSO). In some cases, when compounds are not soluble in DMSO, they are made in 100% ethanol. Stocks are sonicated as necessary. […]
Cells are allowed to stabilize for 10 min after establishment of the whole-cell configuration before current is measured. The test compound is applied 2 times at 60 second intervals. After the second compound addition, a 200 second wait period was imposed to allow for equilibration.
Leak currents are subtracted by using an online P/4 procedure and all currents are low-pass Bessel filtered at 5 kHz and digitized at […].
Use-dependent block of NaV1.2 peak current is measured during pulse number 20 of a voltage pulse train (0 mV, 20 ms, 20 pulses, 25 Hz) from a holding potential of −120 mV. Currents are normalized to the peak current recorded in response to the first pulse in each frequency train. The voltage protocol for UDB was performed in the absence and presence of compound and percentage inhibition was calculated with respect to the compound free condition. Results are presented as mean percentage inhibition and data analysis is performed using QPatch Assay Software 4.0, and Excel 2002 (Microsoft, Seattle, Wash., U.S.A.).

Row | SMILES | inhibition at 1 µM [1] [%] | inhibition at 1 µM (hNaV1.1 (SCN1A)) [%] | inhibition at 10 µM (hNaV1.1 (SCN1A)) [%]
1 | Cc1nccc(CN2Cc3cc(-c4ccc(OC(F)(F)F)cc4)ccc3OC2=O)n1 [Example 15, 3-((2-methylpyrimidin-4-yl)methyl)-6-(4-(trifluoromethoxy)phenyl)-3,4-dihydro-2H-benzo[e][1,3]oxazin-2-one] | 30 | – | –
2 | O=C1Oc2cc3c(cc2CN1Cc1ncccn1)-c1ccc(OC(F)(F)F)cc1C3 [Example 60, 3-(pyrimidin-2-ylmethyl)-8-(trifluoromethoxy)-3,4-dihydrofluoreno[3,2-e][1,3]oxazin-2(10H)-one] | 11.2 | – | –
3 | CC1c2cc(-c3ccc(C(F)(F)F)cc3)ccc2OC(=O)N1Cc1ncccn1 (stereo not drawn) [Example 49, 4-methyl-3-(pyrimidin-2-ylmethyl)-6-(4-(trifluoromethyl)phenyl)-3,4-dihydro-2H-benzo[e][1,3]oxazin-2-one] | 41.5 | 21.5 | 82.4
4 | O=C1Oc2ccc(-c3ccc(C(F)(F)F)cc3)cc2CN1Cc1ncccn1 [Example 4, 3-(pyrimidin-2-ylmethyl)-6-(4-(trifluoromethyl)phenyl)-3,4-dihydro-2H-benzo[e][1,3]oxazin-2-one] | 53.9 | 49.9 | 76.5
5 | O=C1Oc2ccc(-c3ccc(OC(F)(F)F)cc3)cc2CN1Cc1ncccn1 [Example 3, 3-(pyrimidin-2-ylmethyl)-6-(4-(trifluoromethoxy)phenyl)-3,4-dihydro-2H-benzo[e][1,3]oxazin-2-one] | 51.8 | 42.6 | 91.6
6 | CC1c2cc(-c3cccc(Oc4ccccc4)c3)ccc2OC(=O)N1Cc1ncccn1 (stereo not drawn) [Example 51, 4-methyl-6-(3-phenoxyphenyl)-3-(pyrimidin-2-ylmethyl)-3,4-dihydro-2H-benzo[e][1,3]oxazin-2-one] | 41.6 | – | –
